Assay results reported in US10457654B2 (GENENTECH, INC., priority 2017, dated 2019).
Where a name gives a salt, the structure may show the parent alone.

What follows are compounds tested against hNav1.7 (Homo sapiens (Human), UniProt Q15858) (assay: Tritiated compound binding to membranes from cells expressing hNav1.7 and the β1 subunit, competitive binding (LBA, Ex. 243A)). Settings: 100 pM [3H]compound, 18 h, room temperature; read-out: Nav1.7 LBA (Ex. 243A) IC50.
hNav1.7, sequence (Q15858 whole entry, looked up): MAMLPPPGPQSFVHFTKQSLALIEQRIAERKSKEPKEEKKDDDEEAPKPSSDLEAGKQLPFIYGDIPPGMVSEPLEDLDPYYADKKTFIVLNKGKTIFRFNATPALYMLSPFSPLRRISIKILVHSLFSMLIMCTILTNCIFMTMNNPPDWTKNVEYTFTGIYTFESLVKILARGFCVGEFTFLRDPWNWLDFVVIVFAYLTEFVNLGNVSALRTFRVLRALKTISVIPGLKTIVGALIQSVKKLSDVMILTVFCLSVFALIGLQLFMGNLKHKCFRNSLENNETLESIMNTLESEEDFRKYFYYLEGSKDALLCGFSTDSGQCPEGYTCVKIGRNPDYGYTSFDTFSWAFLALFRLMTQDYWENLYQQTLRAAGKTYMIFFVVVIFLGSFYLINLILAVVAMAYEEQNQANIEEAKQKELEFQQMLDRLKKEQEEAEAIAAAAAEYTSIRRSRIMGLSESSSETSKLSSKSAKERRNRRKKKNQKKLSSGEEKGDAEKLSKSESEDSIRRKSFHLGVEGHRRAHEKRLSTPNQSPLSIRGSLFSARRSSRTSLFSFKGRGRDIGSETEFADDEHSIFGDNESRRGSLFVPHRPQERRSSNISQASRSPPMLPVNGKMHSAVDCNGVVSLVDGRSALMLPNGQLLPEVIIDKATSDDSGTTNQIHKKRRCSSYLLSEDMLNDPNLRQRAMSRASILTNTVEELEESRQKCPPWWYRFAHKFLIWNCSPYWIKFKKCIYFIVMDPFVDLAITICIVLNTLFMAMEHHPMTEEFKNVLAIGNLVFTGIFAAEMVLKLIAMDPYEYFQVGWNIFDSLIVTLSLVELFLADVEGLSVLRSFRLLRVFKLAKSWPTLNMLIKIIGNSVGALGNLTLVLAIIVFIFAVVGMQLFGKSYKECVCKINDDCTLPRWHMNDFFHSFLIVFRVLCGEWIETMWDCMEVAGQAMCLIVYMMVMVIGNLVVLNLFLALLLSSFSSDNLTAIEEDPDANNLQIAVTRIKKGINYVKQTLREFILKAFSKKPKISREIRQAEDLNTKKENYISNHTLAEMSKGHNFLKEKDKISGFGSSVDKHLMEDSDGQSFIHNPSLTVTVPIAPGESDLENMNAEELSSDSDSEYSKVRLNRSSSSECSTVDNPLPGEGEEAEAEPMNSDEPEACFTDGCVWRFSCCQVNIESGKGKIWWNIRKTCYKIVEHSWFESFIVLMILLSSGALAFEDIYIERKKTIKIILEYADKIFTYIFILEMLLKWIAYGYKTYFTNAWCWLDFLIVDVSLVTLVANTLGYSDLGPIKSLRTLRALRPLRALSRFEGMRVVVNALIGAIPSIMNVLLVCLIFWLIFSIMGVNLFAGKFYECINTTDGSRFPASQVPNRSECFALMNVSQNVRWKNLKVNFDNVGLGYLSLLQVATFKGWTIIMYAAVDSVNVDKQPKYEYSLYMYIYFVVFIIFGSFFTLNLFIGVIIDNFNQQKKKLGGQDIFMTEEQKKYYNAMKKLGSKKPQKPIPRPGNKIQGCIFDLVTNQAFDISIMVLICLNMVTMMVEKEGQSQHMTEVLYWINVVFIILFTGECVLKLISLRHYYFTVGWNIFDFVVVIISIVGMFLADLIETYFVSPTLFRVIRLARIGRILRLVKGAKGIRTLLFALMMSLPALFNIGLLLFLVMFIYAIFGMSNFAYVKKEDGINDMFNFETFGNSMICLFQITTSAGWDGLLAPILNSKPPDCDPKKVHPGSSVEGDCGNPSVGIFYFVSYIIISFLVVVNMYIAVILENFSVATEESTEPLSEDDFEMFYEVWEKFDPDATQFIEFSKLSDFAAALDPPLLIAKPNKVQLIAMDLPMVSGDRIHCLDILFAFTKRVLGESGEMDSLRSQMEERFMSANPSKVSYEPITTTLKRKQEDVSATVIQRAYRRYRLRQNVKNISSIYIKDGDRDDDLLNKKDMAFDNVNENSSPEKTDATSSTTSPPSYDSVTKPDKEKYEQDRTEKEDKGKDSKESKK
hNav1.7, sequence (Q07699 whole entry partner, looked up): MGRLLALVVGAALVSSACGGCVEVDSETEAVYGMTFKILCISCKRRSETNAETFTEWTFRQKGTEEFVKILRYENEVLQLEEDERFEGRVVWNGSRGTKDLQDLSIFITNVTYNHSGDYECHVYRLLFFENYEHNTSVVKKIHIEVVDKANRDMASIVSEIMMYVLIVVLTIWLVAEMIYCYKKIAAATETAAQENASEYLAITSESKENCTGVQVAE
Procedure: Tritiated Compound Binding to Membranes Isolated from Cells that Heterologously Express hNav1.7 and the β1 Subunit
Preparation of membranes containing recombinantly expressed sodium channels: Frozen recombinant cell pellets were thawed on ice and diluted to 4 times the cell pellet weight with ice cold 50 mM Tris HCl, pH 7.4 buffer. The cell suspensions were homogenized on ice using a motorized glass dounce homogeniser. Homogenates were further diluted 8.4 times with ice cold 50 mM Tris HCl, pH 7.4 buffer and then centrifuged at 200×g at 4° C. for 15 min. The supernatants were collected and centrifuged at 10000×g at 4° C. for 50 min. […] The homogenized membranes were then processed through a syringe equipped with a 26 gauge needle. Protein concentrations were determined by Bradford Assay and the membranes were stored at −80° C.
Radioligand Binding Studies: Saturation experiments. A competitive NaV1.7 inhibitor having a methyl group was tritiated. Three tritiums were incorporated in place of methyl hydrogens to generate [^3H]compound. Binding of this radioligand was performed in 5 mL borosilicate glass test tubes at room temperature. […] Non-specific binding was determined in the presence of 1 μM unlabeled compound. After 18h, the reactants were filtered through GF/C glass fiber filters presoaked in 0.5% w/v polyethylene imine. […] [^3H]compound bound to filters was quantified by liquid scintillation counting.
Competitive binding experiments: Binding reactions were performed in 96-well polypropylene plates at room temperature for 18h. In 360 μL, membranes were incubated with 100 pM [^3H]compound and increasing concentrations of Test Compound. Non-specific binding was defined in the presence of 1 μM unlabeled compound. Reactions were transferred and filtered through 96-well glass fiber/C filter plates presoaked with 0.5% polyethylene imine. The filtered reactions were washed 5 times with 200 μL ice cold buffer containing 0.25% BSA. Bound radioactivity was determined by liquid scintillation counting.
Data Analysis: For saturation experiments, non-specific binding was subtracted from total binding to provide specific binding and these values were recalculated in terms of pmol ligand bound per mg protein. Saturation curves were constructed and dissociation constants were calculated using the single site ligand binding model: Beq=(Bmax*X)/(X+Kd), where Beq is the amount of ligand bound at equilibrium, Bmax is the maximum receptor density, Kd is the dissociation constant for the ligand, and X is the free ligand concentration. For competition studies percent inhibition was determined and IC50 values were calculated using a 4 parameter logistic model (% inhibition=(A+((B−A)/(1+((x/C)^D)))) using XLfit, where A and B are the maximal and minimum inhibition respectively, C is the IC50 concentration and D is the (Hill) slope.
CN(C)[C@H]1CCCC[C@@H]1Nc1cc(F)c(S(=O)(=O)Nc2ccncn2)cc1C1CC1 [Example 69, 5-cyclopropyl-4-(((1S,2S)-2-(dimethylamino)cyclohexyl)amino)-2-fluoro-N-(pyrimidin-4-yl)benzenesulfonamide formate] was tested, and the IC50 was 296 nM.
O=S(=O)(Nc1nccs1)c1cc(Cl)c(N[C@H]2CCCC[C@@H]2N2CCCCC2)cc1F [Example 70, 5-chloro-2-fluoro-4-(((1S,2S)-2-(piperidin-1-yl)cyclohexyl)amino)-N-(thiazol-2-yl)benzenesulfonamide formate] showed an IC50 of 3.46 nM.
With CCN(C)[C@H]1CCCC[C@@H]1Nc1cc(F)c(S(=O)(=O)Nc2cccc(F)n2)cc1Cl [Example 71, 5-chloro-4-(((1S,2S)-2-(ethyl(methyl)amino)cyclohexyl)amino)-2-fluoro-N-(6-fluoropyridin-2-yl)benzenesulfonamide] the IC50 was 41.3 nM.
CN(CCO)[C@H]1CCCC[C@@H]1Nc1cc(F)c(S(=O)(=O)Nc2cccc(F)n2)cc1Cl [Example 72, 5-chloro-2-fluoro-N-(6-fluoropyridin-2-yl)-4-(((1S,2S)-2-((2-hydroxyethyl)(methyl)amino)cyclohexyl)amino)benzenesulfonamide] was tested, and the IC50 was 14.8 nM.
With CCN[C@H]1CCCC[C@@H]1Nc1cc(F)c(S(=O)(=O)Nc2cccc(F)n2)cc1Cl [Example 73, 5-chloro-4-(((1S,2S)-2-(ethylamino)cyclohexyl)amino)-2-fluoro-N-(6-fluoropyridin-2-yl)benzenesulfonamide] the IC50 was 19.7 nM.
Work on CN[C@H]1CCCC[C@@H]1Nc1cc(F)c(S(=O)(=O)Nc2cccc(F)n2)cc1Cl [Example 74, 5-chloro-2-fluoro-N-(6-fluoropyridin-2-yl)-4-(((1S,2S)-2-(methylamino)cyclohexyl)amino)benzenesulfonamide] yielded an IC50 of 91.7 nM.
With CN(C)[C@H]1CC[C@H](C(F)(F)F)C[C@@H]1Nc1cc(F)c(S(=O)(=O)Nc2nccs2)cc1Cl [Example 75, 5-chloro-4-(((1S,2S,5S)-2-(dimethylamino)-5-(trifluoromethyl)cyclohexyl)amino)-2-fluoro-N-(thiazol-2-yl)benzenesulfonamide] the IC50 was 37.9 nM.
CN(C)[C@H]1CC[C@@H](C(F)(F)F)C[C@@H]1Nc1cc(F)c(S(=O)(=O)Nc2nccs2)cc1Cl [Example 76, 5-chloro-4-(((1S,2S,5R)-2-(dimethylamino)-5-(trifluoromethyl)cyclohexyl)amino)-2-fluoro-N-(thiazol-2-yl)benzenesulfonamide] gave an IC50 of 116 nM.
CN(C)[C@H]1C[C@H](C(F)(F)F)CC[C@@H]1Nc1cc(F)c(S(=O)(=O)Nc2nccs2)cc1Cl [Example 77, 5-chloro-4-(((1S,2S,4R)-2-(dimethylamino)-4-(trifluoromethyl)cyclohexyl)amino)-2-fluoro-N-(thiazol-2-yl)benzenesulfonamide] showed an IC50 of 43.2 nM.
CN(C)[C@H]1CCCC[C@@H]1Oc1cc(F)c(S(=O)(=O)Nc2nccs2)cc1C(F)(F)F [Example 78, 4-(((1S,2S)-2-(dimethylamino)cyclohexyl)oxy)-2-fluoro-N-(thiazol-2-yl)-5-(trifluoromethyl)benzenesulfonamide formate] was tested, and the IC50 was 95.6 nM.
In the case of CN(CC(N)=O)[C@H]1CCCC[C@@H]1Nc1cc(F)c(S(=O)(=O)Nc2nccs2)cc1Cl [Example 79, 2-(((1S,2S)-2-((2-chloro-5-fluoro-4-(N-(thiazol-2-yl)sulfamoyl)phenyl)amino)cyclohexyl)(methyl)amino)acetamide formate], the IC50 is reported as 9.28 nM.
For CNC(=O)CN(C)[C@H]1CCCC[C@@H]1Nc1cc(F)c(S(=O)(=O)Nc2nccs2)cc1Cl [Example 80, 2-(((1S,2S)-2-((2-chloro-5-fluoro-4-(N-(thiazol-2-yl)sulfamoyl)phenyl)amino)cyclohexyl)(methyl)amino)-N-methylacetamide formate], the IC50 was 122 nM.
CN(C)[C@@H]1C[C@@H](C(F)(F)F)CC[C@H]1Nc1cc(F)c(S(=O)(=O)Nc2nccs2)cc1Cl [Example 81, 5-chloro-4-(((1R,2R,4S)-2-(dimethylamino)-4-(trifluoromethyl)cyclohexyl)amino)-2-fluoro-N-(thiazol-2-yl)benzenesulfonamide] gave an IC50 of 1740 nM.
In the case of CN(C)[C@H]1C[C@@H](C(F)(F)F)CC[C@@H]1Nc1cc(F)c(S(=O)(=O)Nc2nccs2)cc1Cl [Example 82, 5-chloro-4-(((1S,2S,4S)-2-(dimethylamino)-4-(trifluoromethyl)cyclohexyl)amino)-2-fluoro-N-(thiazol-2-yl)benzenesulfonamide], the IC50 is reported as 3.35 nM.
In the case of CN(C)[C@@H]1CC[C@@H](C(F)(F)F)C[C@H]1Nc1cc(F)c(S(=O)(=O)Nc2nccs2)cc1Cl [Example 83, 5-chloro-4-(((1R,2R,5R)-2-(dimethylamino)-5-(trifluoromethyl)cyclohexyl)amino)-2-fluoro-N-(thiazol-2-yl)benzenesulfonamide], the IC50 is reported as 379 nM.
In the case of CN(C)[C@@H]1CC[C@H](C(F)(F)F)C[C@H]1Nc1cc(F)c(S(=O)(=O)Nc2nccs2)cc1Cl [Example 84, 5-chloro-4-(((1R,2R,5S)-2-(dimethylamino)-5-(trifluoromethyl)cyclohexyl)amino)-2-fluoro-N-(thiazol-2-yl)benzenesulfonamide], the IC50 is reported as 3000 nM.
In the case of CN(C)[C@H]1CCCC[C@@H]1Nc1cc(F)c(S(=O)(=O)Nc2cccc(Cl)n2)cc1Cl [Example 85, 5-chloro-N-(6-chloropyridin-2-yl)-4-(((1S,2S)-2-(dimethylamino)cyclohexyl)amino)-2-fluorobenzenesulfonamide], the IC50 is reported as 252 nM.
For CC(O)CN(C)[C@H]1CCCC[C@@H]1Nc1cc(F)c(S(=O)(=O)Nc2cccc(F)n2)cc1Cl (stereo partly drawn) [Example 86, 5-chloro-2-fluoro-N-(6-fluoropyridin-2-yl)-4-(((1S,2S)-2-((2-hydroxypropyl)(methyl)amino)cyclohexyl)amino)benzenesulfonamide], the IC50 was 38.1 nM.
CN(C)[C@H]1CC[C@H](c2cccc(C(F)(F)F)c2)C[C@@H]1Nc1cc(F)c(S(=O)(=O)Nc2nccs2)cc1Cl [Example 87, 5-chloro-4-(((1S,2S,5S)-2-(dimethylamino)-5-(3-(trifluoromethyl)phenyl)cyclohexyl)amino)-2-fluoro-N-(thiazol-2-yl)benzenesulfonamide] was tested, and the IC50 was 0.539 nM.
In the case of CN(C)[C@H]1CC[C@@H](c2cccc(C(F)(F)F)c2)C[C@@H]1Nc1cc(F)c(S(=O)(=O)Nc2nccs2)cc1Cl [Example 88, 5-chloro-4-(((1S,2S,5R)-2-(dimethylamino)-5-(3-(trifluoromethyl)phenyl)cyclohexyl)amino)-2-fluoro-N-(thiazol-2-yl)benzenesulfonamide], the IC50 is reported as 201 nM.
In the case of CN(CCO)[C@H]1CCCC[C@@H]1Nc1cc(F)c(S(=O)(=O)Nc2ccncn2)cc1Cl [Example 89, 5-chloro-2-fluoro-4-(((1S,2S)-2-((2-hydroxyethyl)(methyl)amino)cyclohexyl)amino)-N-(pyrimidin-4-yl)benzenesulfonamide formate], the IC50 is reported as 59.9 nM.
For CN(C1CNC1)[C@H]1CCCC[C@@H]1Oc1cc(F)c(S(=O)(=O)Nc2nccs2)cc1C1CC1 [Example 90, 4-(((1S,2S)-2-(azetidin-3-yl(methyl)amino)cyclohexyl)oxy)-5-cyclopropyl-2-fluoro-N-(thiazol-2-yl)benzenesulfonamide formate], the IC50 was 2.64 nM.
CN(C)[C@H]1CCCC[C@@H]1Nc1cc(F)c(S(=O)(=O)Nc2nccs2)cc1C1CCC1 [Example 91, 5-cyclobutyl-4-(((1S,2S)-2-(dimethylamino)cyclohexyl)amino)-2-fluoro-N-(thiazol-2-yl)benzenesulfonamide] showed an IC50 of 13 nM.
Work on Cc1csc(NS(=O)(=O)c2cc(Cl)c(N[C@H]3CCCC[C@@H]3N3CCCC3)cc2F)n1 [Example 92, 5-chloro-2-fluoro-N-(4-methylthiazol-2-yl)-4-(((1S,2S)-2-(pyrrolidin-1-yl)cyclohexyl)amino)benzenesulfonamide formate] yielded an IC50 of 118 nM.
Compound CN(C)[C@@H]1CC[C@@H](c2cccc(C(F)(F)F)c2)C[C@H]1Nc1cc(F)c(S(=O)(=O)Nc2nccs2)cc1Cl [Example 93, 5-chloro-4-(((1R,2R,5R)-2-(dimethylamino)-5-(3-(trifluoromethyl)phenyl)cyclohexyl)amino)-2-fluoro-N-(thiazol-2-yl)benzenesulfonamide] has an IC50 of 64.7 nM.
In the case of CN(C[C@H](O)C(F)(F)F)[C@H]1CCCC[C@@H]1Nc1cc(F)c(S(=O)(=O)Nc2nccs2)cc1Cl [Example 94, 5-chloro-2-fluoro-4-(((1S,2S)-2-(methyl((S)-3,3,3-trifluoro-2-hydroxypropyl)amino)cyclohexyl)amino)-N-(thiazol-2-yl)benzenesulfonamide], the IC50 is reported as 31.3 nM.
